# Results taken from ChEMBL document CHEMBL5537170, “Design, Synthesis, and Anti-Osteoporotic Characterization of Arginine N-Glycosylated Teriparatide Analogs via the Silver-catalyzed Solid-Phase Glycosylation Strategy” (J Med Chem, 2024).
# Calls of active or inactive are those of the source. No cut-off for these calls is given here. *1 amine or outer side, *2 acyl side, *3 side chain or, on linkers, in order; H or OH if unused. Where a SMILES comes first, the peptide text is derived from it. [ ]: non-standard residue; d: D form. X3 = CC(=O)N[C@@H]1[C@@H](O)[C@H](O)[C@@H](CO)O[C@H]1NC(=N)NCCC[C@H](N[*:1])C(=O)[*:2]; X4 = N=C(NCCC[C@H](N[*:1])C(=O)[*:2])N[C@@H]1O[C@H](CO)[C@H](O)[C@H](O)[C@H]1O
# Tests used:
# [1] = Induction of osteoblast differentiation in C57BL/6 mouse Pre-Osteoblast cells assessed as fold increase in ephrinB2 protein expression at 100 nM measured after 72 hrs by Western blot analysis relative to control; type: functional
# [2] = Stability in human serum assessed as compound remaining at 1 mg/ml measured after 12 hrs by HPLC analysis; type: ADME, cell-free; conditions: read-out: Stability
# Mus musculus [3] = test: Anti-osteoporosis activity in ovariectomized C57BL/6J mouse model assessed as increase in trabecular number in femur at 20 microg/kg, sc administered 3 times a week for 8 weeks by micro-CT analysis; type: functional, organism-based; conditions: dose 20.0 µg/kg
# Pre-Osteoblast [4] = test: Induction of osteoblast differentiation in C57BL/6 mouse Pre-Osteoblast cells assessed as increase in bone mineralization by measuring increase in red calcium nodules measured after 14 days by Alizarin Red S staining based analysis; type: functional, cell-based; conditions: time 14.0 day
# [5] = Cytotoxicity against C57BL/6 mouse Pre-Osteoblast cells assessed as cell death upto 5 uM incubated for 4 days by CCK-8 assay; type: toxicity, cell-based; conditions: 96 h, time 4 day
# Pre-Osteoblast [6] = test: Induction of osteoblast differentiation in C57BL/6 mouse Pre-Osteoblast cells assessed as increase in bone mineralization by measuring increase in area of calcium nodules measured after 14 days by Alizarin Red S staining based analysis; type: functional, cell-based; conditions: time 14.0 day
# [7] = Induction of osteoblast differentiation in C57BL/6 mouse Pre-Osteoblast cells assessed as fold increase in ephrinB2 protein expression at 200 nM measured after 72 hrs by Western blot analysis relative to control; type: functional
# Mus musculus [8] = test: Anti-osteoporosis activity in ovariectomized C57BL/6J mouse model assessed as increase in bone volume percent in femur at 20 microg/kg, sc administered 3 times a week for 8 weeks by micro-CT analysis; type: functional, organism-based; conditions: dose 20.0 µg/kg
# [9] = Induction of osteoblast differentiation in C57BL/6 mouse Pre-Osteoblast cells assessed as fold increase in ephrinB2 protein expression at 50 nM measured after 72 hrs by Western blot analysis relative to control; type: functional
# Pre-Osteoblast [10] = test: Induction of osteoblast differentiation in C57BL/6 mouse Pre-Osteoblast cells assessed as increase in ALP expression by measuring increase in ALP-positive cells with purple color at 50 nM measured after 2 days by ALP staining based analysis; type: functional, cell-based; conditions: time 2.0 day
# Mus musculus [11] = test: Anti-osteoporosis activity in ovariectomized C57BL/6J mouse model assessed as increase in bone surface density in femur at 20 microg/kg, sc administered 3 times a week for 8 weeks by micro-CT analysis; type: functional, organism-based; conditions: dose 20.0 µg/kg
smiles,measurement,setting,value
CC[C@H](C)[C@H](NC(=O)[C@H](CCC(=O)O)NC(=O)[C@H](CO)NC(=O)[C@@H](NC(=O)[C@H](CO)NC(C)=O)C(C)C)C(=O)N[C@@H](CCC(N)=O)C(=O)N[C@@H](CC(C)C)C(=O)N[C@@H](CCSC)C(=O)N[C@@H](Cc1cnc[nH]1)C(=O)N[C@@H](CC(N)=O)C(=O)N[C@@H](CC(C)C)C(=O)NCC(=O)N[C@@H](CCCCN)C(=O)N[C@@H](Cc1cnc[nH]1)C(=O)N[C@@H](CC(C)C)C(=O)N[C@@H](CC(N)=O)C(=O)N[C@@H](CO)C(=O)N[C@@H](CCSC)C(=O)N[C@@H](CCC(=O)O)C(=O)N[C@@H](CCCNC(=N)N[C@@H]1OC[C@@H](O)[C@H](O)[C@H]1O)C(=O)N[C@H](C(=O)N[C@@H](CCC(=O)O)C(=O)N[C@@H](Cc1c[nH]c2ccccc12)C(=O)N[C@@H](CC(C)C)C(=O)N[C@@H](CCCNC(=N)N)C(=O)N[C@@H](CCCCN)C(=O)N[C@@H](CCCCN)C(=O)N[C@@H](CC(C)C)C(=O)N[C@@H](CCC(N)=O)C(=O)N[C@@H](CC(=O)O)C(=O)N[C@H](C(=O)N[C@@H](Cc1cnc[nH]1)C(=O)N[C@@H](CC(N)=O)C(=O)N[C@@H](Cc1ccccc1)C(N)=O)C(C)C)C(C)C,fold change (FC),[1],1.28
same,"remaining at 12 h, 1 mg/ml",[2],> 75%
same,Activity,Mus musculus [3],Active
same,Activity,Pre-Osteoblast [4],Active
same,Activity,[5],Non-Toxic
same,Activity,Pre-Osteoblast [6],Active
same,fold change (FC),[7],1.29
same,Activity,Mus musculus [8],Active
same,fold change (FC),[9],1.04
same,Activity,Pre-Osteoblast [10],Active
same,Activity,Mus musculus [11],Active
CC[C@H](C)[C@H](NC(=O)[C@H](CCC(=O)O)NC(=O)[C@H](CO)NC(=O)[C@@H](NC(=O)[C@H](CO)NC(C)=O)C(C)C)C(=O)N[C@@H](CCC(N)=O)C(=O)N[C@@H](CC(C)C)C(=O)N[C@@H](CCSC)C(=O)N[C@@H](Cc1cnc[nH]1)C(=O)N[C@@H](CC(N)=O)C(=O)N[C@@H](CC(C)C)C(=O)NCC(=O)N[C@@H](CCCCN)C(=O)N[C@@H](Cc1cnc[nH]1)C(=O)N[C@@H](CC(C)C)C(=O)N[C@@H](CC(N)=O)C(=O)N[C@@H](CO)C(=O)N[C@@H](CCSC)C(=O)N[C@@H](CCC(=O)O)C(=O)N[C@@H](CCCNC(=N)N[C@H]1O[C@H](CO)[C@@H](O)[C@H](O)[C@H]1O)C(=O)N[C@H](C(=O)N[C@@H](CCC(=O)O)C(=O)N[C@@H](Cc1c[nH]c2ccccc12)C(=O)N[C@@H](CC(C)C)C(=O)N[C@@H](CCCNC(=N)N)C(=O)N[C@@H](CCCCN)C(=O)N[C@@H](CCCCN)C(=O)N[C@@H](CC(C)C)C(=O)N[C@@H](CCC(N)=O)C(=O)N[C@@H](CC(=O)O)C(=O)N[C@H](C(=O)N[C@@H](Cc1cnc[nH]1)C(=O)N[C@@H](CC(N)=O)C(=O)N[C@@H](Cc1ccccc1)C(N)=O)C(C)C)C(C)C,Activity,[5],Non-Toxic
CC[C@H](C)[C@H](NC(=O)[C@H](CCC(=O)O)NC(=O)[C@H](CO)NC(=O)[C@@H](NC(=O)[C@H](CO)NC(C)=O)C(C)C)C(=O)N[C@@H](CCC(N)=O)C(=O)N[C@@H](CC(C)C)C(=O)N[C@@H](CCSC)C(=O)N[C@@H](Cc1cnc[nH]1)C(=O)N[C@@H](CC(N)=O)C(=O)N[C@@H](CC(C)C)C(=O)NCC(=O)N[C@@H](CCCCN)C(=O)N[C@@H](Cc1cnc[nH]1)C(=O)N[C@@H](CC(C)C)C(=O)N[C@@H](CC(N)=O)C(=O)N[C@@H](CO)C(=O)N[C@@H](CCSC)C(=O)N[C@@H](CCC(=O)O)C(=O)N[C@@H](CCCNC(=N)N[C@@H]1O[C@H](CO)[C@@H](O)[C@H](O)[C@H]1NC(C)=O)C(=O)N[C@H](C(=O)N[C@@H](CCC(=O)O)C(=O)N[C@@H](Cc1c[nH]c2ccccc12)C(=O)N[C@@H](CC(C)C)C(=O)N[C@@H](CCCNC(=N)N[C@@H]1O[C@H](CO)[C@@H](O)[C@H](O)[C@H]1NC(C)=O)C(=O)N[C@@H](CCCCN)C(=O)N[C@@H](CCCCN)C(=O)N[C@@H](CC(C)C)C(=O)N[C@@H](CCC(N)=O)C(=O)N[C@@H](CC(=O)O)C(=O)N[C@H](C(=O)N[C@@H](Cc1cnc[nH]1)C(=O)N[C@@H](CC(N)=O)C(=O)N[C@@H](Cc1ccccc1)C(N)=O)C(C)C)C(C)C (Ac-SVSEIQLMHNLGKHLNSME[X3]VEWL[X3]KKLQDVHNF-NH2),Activity,[5],Non-Toxic
CC[C@H](C)[C@H](NC(=O)[C@H](CCC(=O)O)NC(=O)[C@H](CO)NC(=O)[C@@H](NC(=O)[C@H](CO)NC(C)=O)C(C)C)C(=O)N[C@@H](CCC(N)=O)C(=O)N[C@@H](CC(C)C)C(=O)N[C@@H](CCSC)C(=O)N[C@@H](Cc1cnc[nH]1)C(=O)N[C@@H](CC(N)=O)C(=O)N[C@@H](CC(C)C)C(=O)NCC(=O)N[C@@H](CCCCN)C(=O)N[C@@H](Cc1cnc[nH]1)C(=O)N[C@@H](CC(C)C)C(=O)N[C@@H](CC(N)=O)C(=O)N[C@@H](CO)C(=O)N[C@@H](CCSC)C(=O)N[C@@H](CCC(=O)O)C(=O)N[C@@H](CCCNC(=N)N[C@@H]1O[C@H](CO)[C@@H](O)[C@H]1O)C(=O)N[C@H](C(=O)N[C@@H](CCC(=O)O)C(=O)N[C@@H](Cc1c[nH]c2ccccc12)C(=O)N[C@@H](CC(C)C)C(=O)N[C@@H](CCCNC(=N)N)C(=O)N[C@@H](CCCCN)C(=O)N[C@@H](CCCCN)C(=O)N[C@@H](CC(C)C)C(=O)N[C@@H](CCC(N)=O)C(=O)N[C@@H](CC(=O)O)C(=O)N[C@H](C(=O)N[C@@H](Cc1cnc[nH]1)C(=O)N[C@@H](CC(N)=O)C(=O)N[C@@H](Cc1ccccc1)C(N)=O)C(C)C)C(C)C,Activity,[5],Non-Toxic
CC[C@H](C)[C@H](NC(=O)[C@H](CCC(=O)O)NC(=O)[C@H](CO)NC(=O)[C@@H](NC(=O)[C@H](CO)NC(C)=O)C(C)C)C(=O)N[C@@H](CCC(N)=O)C(=O)N[C@@H](CC(C)C)C(=O)N[C@@H](CCSC)C(=O)N[C@@H](Cc1cnc[nH]1)C(=O)N[C@@H](CC(N)=O)C(=O)N[C@@H](CC(C)C)C(=O)NCC(=O)N[C@@H](CCCCN)C(=O)N[C@@H](Cc1cnc[nH]1)C(=O)N[C@@H](CC(C)C)C(=O)N[C@@H](CC(N)=O)C(=O)N[C@@H](CO)C(=O)N[C@@H](CCSC)C(=O)N[C@@H](CCC(=O)O)C(=O)N[C@@H](CCCNC(=N)N[C@@H]1O[C@H](CO)[C@H](O)[C@H](O)[C@H]1O)C(=O)N[C@H](C(=O)N[C@@H](CCC(=O)O)C(=O)N[C@@H](Cc1c[nH]c2ccccc12)C(=O)N[C@@H](CC(C)C)C(=O)N[C@@H](CCCNC(=N)N[C@@H]1O[C@H](CO)[C@H](O)[C@H](O)[C@H]1O)C(=O)N[C@@H](CCCCN)C(=O)N[C@@H](CCCCN)C(=O)N[C@@H](CC(C)C)C(=O)N[C@@H](CCC(N)=O)C(=O)N[C@@H](CC(=O)O)C(=O)N[C@H](C(=O)N[C@@H](Cc1cnc[nH]1)C(=O)N[C@@H](CC(N)=O)C(=O)N[C@@H](Cc1ccccc1)C(N)=O)C(C)C)C(C)C (Ac-SVSEIQLMHNLGKHLNSME[X4]VEWL[X4]KKLQDVHNF-NH2),Activity,[5],Non-Toxic
CC[C@H](C)[C@H](NC(=O)[C@H](CCC(=O)O)NC(=O)[C@H](CO)NC(=O)[C@@H](NC(=O)[C@H](CO)NC(C)=O)C(C)C)C(=O)N[C@@H](CCC(N)=O)C(=O)N[C@@H](CC(C)C)C(=O)N[C@@H](CCSC)C(=O)N[C@@H](Cc1cnc[nH]1)C(=O)N[C@@H](CC(N)=O)C(=O)N[C@@H](CC(C)C)C(=O)NCC(=O)N[C@@H](CCCCN)C(=O)N[C@@H](Cc1cnc[nH]1)C(=O)N[C@@H](CC(C)C)C(=O)N[C@@H](CC(N)=O)C(=O)N[C@@H](CO)C(=O)N[C@@H](CCSC)C(=O)N[C@@H](CCC(=O)O)C(=O)N[C@@H](CCCNC(=N)N)C(=O)N[C@H](C(=O)N[C@@H](CCC(=O)O)C(=O)N[C@@H](Cc1c[nH]c2ccccc12)C(=O)N[C@@H](CC(C)C)C(=O)N[C@@H](CCCNC(=N)N[C@@H]1OC[C@@H](O)[C@H](O)[C@H]1O)C(=O)N[C@@H](CCCCN)C(=O)N[C@@H](CCCCN)C(=O)N[C@@H](CC(C)C)C(=O)N[C@@H](CCC(N)=O)C(=O)N[C@@H](CC(=O)O)C(=O)N[C@H](C(=O)N[C@@H](Cc1cnc[nH]1)C(=O)N[C@@H](CC(N)=O)C(=O)N[C@@H](Cc1ccccc1)C(N)=O)C(C)C)C(C)C,Activity,[5],Non-Toxic
CC[C@H](C)[C@H](NC(=O)[C@H](CCC(=O)O)NC(=O)[C@H](CO)NC(=O)[C@@H](NC(=O)[C@H](CO)NC(C)=O)C(C)C)C(=O)N[C@@H](CCC(N)=O)C(=O)N[C@@H](CC(C)C)C(=O)N[C@@H](CCSC)C(=O)N[C@@H](Cc1cnc[nH]1)C(=O)N[C@@H](CC(N)=O)C(=O)N[C@@H](CC(C)C)C(=O)NCC(=O)N[C@@H](CCCCN)C(=O)N[C@@H](Cc1cnc[nH]1)C(=O)N[C@@H](CC(C)C)C(=O)N[C@@H](CC(N)=O)C(=O)N[C@@H](CO)C(=O)N[C@@H](CCSC)C(=O)N[C@@H](CCC(=O)O)C(=O)N[C@@H](CCCNC(=N)N[C@@H]1O[C@@H](C)[C@H](O)[C@@H](O)[C@H]1O)C(=O)N[C@H](C(=O)N[C@@H](CCC(=O)O)C(=O)N[C@@H](Cc1c[nH]c2ccccc12)C(=O)N[C@@H](CC(C)C)C(=O)N[C@@H](CCCNC(=N)N)C(=O)N[C@@H](CCCCN)C(=O)N[C@@H](CCCCN)C(=O)N[C@@H](CC(C)C)C(=O)N[C@@H](CCC(N)=O)C(=O)N[C@@H](CC(=O)O)C(=O)N[C@H](C(=O)N[C@@H](Cc1cnc[nH]1)C(=O)N[C@@H](CC(N)=O)C(=O)N[C@@H](Cc1ccccc1)C(N)=O)C(C)C)C(C)C,Activity,[5],Non-Toxic
